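Following 48 hours of exposure in 96-well plates, responses at five concentrations were used to interpolate endpoints linearly. GI50: concentration for 50% inhibition of growth.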 The source made the active and inactive calls. Rule as the data show it: active = GI50 up to about 1.1 µM and inactive = higher.
Key:
Experiment in all cases: growth of human tumour cells (NCI), 48 h
DLD-1 = test system: DLD-1
HOP-18 = test system: HOP-18
XF498 = test system: XF498
M19-MEL = test system: M19-MEL
DMS-114 = test system: DMS-114
SNB-78 = test system: SNB-78
KM-20L2 = test system: KM-20L2
RXF 631 = test system: RXF 631
DMS-273 = test system: DMS-273

Measured: GI50

CCOC(=O)C(C)c1cc(C2(C)OCCO2)c(C)o1 (configuration not stated)
inactive: DLD-1 > 100 µM | HOP-18 > 100 µM | XF498 > 100 µM | M19-MEL > 100 µM | DMS-114 > 100 µM | SNB-78 > 100 µM | KM-20L2 > 100 µM | RXF 631 > 100 µM | DMS-273 > 100 µM

CC1=C(/C=C/C(C)=C/C2CC(N(C)C)=CC(=O)O2)C(C)(C)CCC1 (configuration not stated)
inactive: DLD-1 15.3 µM | HOP-18 13.6 µM | XF498 12.4 µM | M19-MEL 14.3 µM | DMS-114 10.8 µM | SNB-78 19.5 µM | RXF 631 13.1 µM | DMS-273 13.4 µM

Oc1ccc(Br)cc1/C=N/c1ccc(/N=C/c2cc(Br)ccc2O)cc1
inactive: DLD-1 > 100 µM | DMS-114 > 100 µM | SNB-78 > 100 µM | KM-20L2 > 100 µM

CCOC(=O)NC(=O)c1cn(CCCCCCCCCCC(=O)NCCCN2CCN(CCCNC(=O)CCCCCCCCCCn3cc(C(=O)NC(=O)OCC)c(=O)[nH]c3=O)CC2)c(=O)[nH]c1=O
inactive: DLD-1 > 100 µM | HOP-18 > 100 µM | XF498 > 100 µM | M19-MEL > 100 µM | DMS-114 > 100 µM | SNB-78 > 100 µM | KM-20L2 > 100 µM | DMS-273 > 100 µM

Nc1ccc(/N=N/c2ccc(-c3ccc(/N=N/c4c(S(=O)(=O)O)cc5cc(S(=O)(=O)O)c(/N=N/c6ccc([N+](=O)[O-])cc6)c(N)c5c4O)cc3)cc2)c2cc(S(=O)(=O)O)ccc12
inactive: DLD-1 > 100 µM | XF498 > 100 µM | M19-MEL > 100 µM | SNB-78 > 100 µM | KM-20L2 > 100 µM | DMS-273 > 100 µM

CCCCCCCCCCCCOC(=S)NCCCC
inactive: DLD-1 29.4 µM | HOP-18 28.1 µM | XF498 16.4 µM | M19-MEL 32.7 µM | DMS-114 19.7 µM | SNB-78 34.4 µM | KM-20L2 18.7 µM | RXF 631 20.7 µM | DMS-273 18.3 µM

CCOC(=O)N(c1ccccc1)N(CC)C(=O)/C(C)=N/Nc1ccc([N+](=O)[O-])cc1
inactive: DLD-1 15.4 µM | HOP-18 19.7 µM | XF498 17.9 µM | M19-MEL 17.5 µM | DMS-114 17.9 µM | SNB-78 20.8 µM | KM-20L2 17.1 µM | DMS-273 15.6 µM

Source: ChEMBL document CHEMBL1201862, “PubChem BioAssay data set” (2004)
